Assay [1] relates to APP^K670N/M671L/PS1^M146L double Tg mice. The assay is described as follows: Aβ deposition in APP/PS1 double transgenic mice, 6E10 and Thioflavin-S histology with stereology. The class given is in vivo. To be noted: for Aβ load lower compared to vehicle Tg controls: 1 mg i.p. three times per week, four weeks. On the procedure: Initial testing of Aβ12-28P toxicity in vivo was performed on five wild type C57BL6 mice which received intraperitoneal (“i.p.”) injections of 1 mg of Aβ12-28P diluted in 0.5 mL of sterile PBS three times per week for four weeks. […] Signs of toxicity included change in body weight, physical appearance, measurable clinical signs, unprovoked behavior and response to external stimuli were not noticed. After one month, the animals were sacrificed and samples were taken from the brain, liver, gut, spleen, kidney and heart, for hematoxylin and eosin staining. […] The first administration of Aβ12-28P was begun at four months of age, at which time the APP^K670N/M671L/PS1^M146L mice already have significant numbers of Aβ lesions (Wengenack et al., “Quantitative Histological Analysis of Amyloid Deposition in Alzheimer's Double Transgenic Mouse Brain,” Neurosci. 101:939-944 (2000); McGowan et al., “Amyloid Phenotype Characterization of Transgenic Mice Overexpressing Both Mutant Amyloid Precursor Protein and Mutant Presenilin 1 Transgenes,” Neurobiol. Dis. 6:231-244 (1999), which are hereby incorporated by reference in their entirety). The treatment was continued for four weeks (1 mg i.p. three times per week). Control age-matched APP^K670N/M671L/PS1^M146L mice received injections with vehicle only. There were six Aβ12-28P treated and six vehicle treated APP^K670N/M671L/PS1^M146L mice in this study.
Animals were sacrificed a week after the last injection with an overdose of sodium pentobarbital (150 mg/kg i.p.) and transcardially perfused with 20 ml of heparinized 0.1M PBS followed by 4% buffered paraformaldehyde. The brain was dehydrated using increasing concentrations of sucrose in 0.1M PBS, pH 7.4 and sectioned using a freezing microtome (Leica SM2400) (Nussloch, Germany). Serial coronal sections (40 μm thick) were collected in 10 series. Each of the series contained a complete set of cross-sections along the rostro-caudal axis of the brain spaced by 400 μm. […] For Aβ immunohistochemistry, endogenous peroxidase activity was quenched in 0.3% H2O2 for 30 min and incubation with mAb 6E10 at 1:1000 dilution was followed by an anti-mouse IgG biotinylated secondary antibody (1:2000) and avidin-horseradish peroxidase complex (Vectastain MOM kit) (Vector Laboratories, Burlingame, Calif.). Sections were developed using 3,3′-diaminobenzidine kit with nickel ammonium sulfate (Vector Laboratories, Burlingame, Calif.).
Aβ deposition were quantified on one randomly selected section series which was stained with 6E10 mAb. Aβ deposits were measured in the brain cortex and in the hippocampus using a random, unbiased sampling scheme.

The target in another assay is T1, apoE4 (Homo sapiens, UniProt P02649, C130R).
T1 construct: made in house; host or cells: primary forebrain astrocytes of GFAP-human apoE4 transgenic mice
The experiment in a line: Thioflavin-T aggregation inhibition: apoE4-promoted Aβ1-42 fibril formation. The class given is biochemical. On the procedure:
Recombinant apoE3 and apoE4 were purchased from Calbiochem Corp. (San Diego, Calif.). Lipidated apoE3 and apoE4 complexes were prepared from primary cultures of astrocytes derived from Tg mice in which human apoE3 or apoE4 were expressed under the control of the astrocyte-specific glial fibrillary acidic protein (GFAP) promoter as described previously (Fagan et al., “Unique Lipoproteins Secreted by Primary Astrocytes from Wild Type, ApoE (−/−), and Human ApoE Transgenic Mice,” J. Biol. Chem. 274:30001-30007 (1999); DeMattos et al., “Purification and Characterization of Astrocyte-secreted Apolipoprotein E and J-Containing Lipoproteins from Wild-type and Human ApoE Transgenic Mice,” Neurochemistry International 39:415-425 (2001); Sun et al., “Glial Fibrillary Acidic Protein-apolipoprotein E (apoE) Transgenic Mice: Astrocyte-specific Expression and Differing Biological Effects of Astrocyte-secreted ApoE3 and ApoE4 Lipoproteins,” J. Neurosci. 18:3261-3272 (1998); which are hereby incorporated by reference in their entirety). […] The purity of the apoE preparation was assessed by SDS-PAGE.
Aβ1-40 and Aβ1-42 were studied for comparison. […] Samples containing 15 μg of incubated peptides were taken at indicated intervals and fluorescence was measured as previously described in a Perkin-Elmer LS-50B fluorescence spectrophotometer (Perkin Elmer Instruments, Shelton, Conn.) (Wisniewski et al., “Acceleration of Alzheimer's Fibril Formation by Apolipoprotein E in vitro,” Am. J. Pathol. 145:1030-1035 (1994); Golabek et al., “The Interaction Between Apolipoprotein E and Alzheimer's Amyloid β-peptide is Dependent on β-peptide Conformation,” J. Biol. Chem. 271:10602-10606 (1996); which are hereby incorporated by reference in their entirety). […] Differences in amount of fibrils formed by the different peptides were evaluated by means of a repeated measures ANOVA, followed by a Tukey HSD post-hoc test using Statistica (version 6.1) (StatSoft Inc., Tulsa, Okla.). […]

The structures appear in SMILES notation. “Also recorded” adds a separate entry of the source. Where two headings read alike, the source gives them in different places. Square brackets hold non-standard residues; d marks the D form. Peptide text beside a SMILES is read from it.

T1 sequence (P02649 19-317 C130R): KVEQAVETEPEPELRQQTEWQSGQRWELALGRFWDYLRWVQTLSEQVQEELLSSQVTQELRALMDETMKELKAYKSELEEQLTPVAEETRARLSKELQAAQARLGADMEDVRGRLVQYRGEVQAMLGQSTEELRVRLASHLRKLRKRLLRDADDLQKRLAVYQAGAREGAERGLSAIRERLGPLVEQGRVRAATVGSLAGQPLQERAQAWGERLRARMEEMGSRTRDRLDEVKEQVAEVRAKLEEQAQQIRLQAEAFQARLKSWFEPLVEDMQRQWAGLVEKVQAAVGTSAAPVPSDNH

On to `CC(=O)N[C@@H](C(=O)N[C@H](Cc1c[nH]cn1)C(=O)N[C@H](Cc1c[nH]cn1)C(=O)N[C@H](CCC(N)=O)C(=O)N[C@H](CCCCN)C(=O)N[C@H](CC(C)C)C(=O)N1CCC[C@@H]1C(=O)N[C@H](Cc1ccccc1)C(=O)N[C@H](Cc1ccccc1)C(=O)N[C@H](C)C(=O)N[C@H](CCC(=O)O)C(=O)N[C@H](CC(=O)O)C(=O)N[C@@H](C(=O)NCC(=O)N[C@H](CO)C(=O)N[C@H](CC(N)=O)C(=O)N[C@H](CCCCN)C(N)=O)C(C)C)C(C)C` [Aβ12-28P] (Ac-[dV][dH][dH][dQ][dK][dL][dP][dF][dF][dA][dE][dD][dV]G[dS][dN][dK]-NH2), for which the “reduction in the number of medium-size plaques” value in assay [1] (cortex, >500 μm^2 and <1000 μm^2, p<0.05) is listed as 53.5%. The “reduction in the number of large plaques” value in assay [1] (cortex, >1000 μm^2, non-significant) amounted to 44%. For the same compound, the “reduction in the density of small plaques” value in assay [1] (cortex, cross-section area <500 μm^2, p<0.001) is recorded as 52.8%; in assay [1] (hippocampus, p<0.05) it was 37.6%. Moreover, the “Aβ load lower compared to vehicle Tg controls” value in assay [1] (cortex, p=0.0047) turned out to be 63.3%; in assay [1] (hippocampus, p=0.0048) it was 61.9%. Besides, in assay [1] (four weeks of treatment), the “density of fibrillar Aβ plaques on Thioflavin-S staining” value is on record as “reduction in the density of Aβ plaques was also seen”. Besides, the “reduction in the density of large plaques” value in assay [1] (hippocampus, p<0.05) is 65.4%. Besides, in assay [1] (hippocampus, p<0.05), the “reduction in the density of medium-size plaques” value was found to be 48.6%. Further, the “reduction in the numerical density of Aβ plaques” value in assay [1] (hippocampus, p=0.0047) is reported as 46.3%; in assay [1] (neocortex, p=0.0002) it was 60.1%. Moreover, in assay [1] (one month of administration), the “reduction in Aβ load and plaque density versus control Tg animals, in words” value is reported as “over two fold; also recorded: significant reduction”. The “relative reduction in fluorescence” value stood at 25.3% at apoE4 and 52.3% on apoE4 (apoE4 preincubated with Aβ12-28P, then added to Aβ1-42, day six). Also, the “chaperoning effect of apoE4 on Aβ1-42 fibril formation” value at apoE4 (apoE4 preincubated with equimolar Aβ12-28P, p<0.01) is reported as “significantly reduced”.

The record behind these values is patent US7632816B2, “Treatment of Alzheimer amyloid deposition” (New York University, priority 2003, dated 2009).
